ChEMBL document CHEMBL4813973, “Discovery of novel N-benzylbenzamide derivatives as tubulin polymerization inhibitors with potent antitumor activities” (Eur J Med Chem, 2021)
≈ marks a conversion by molar mass, not a printed value. Calls of active or inactive are those of the source. The rule behind the calls is not given here.

Legend:
K562/VCR = test: Antiproliferative activity against VCR resistant human K562/VCR cells assessed as reduction in cell viability incubated for 72 hrs by MTT assay; assay type: functional, cell-based; details: Homo sapiens, K562/VCR, 72 h; read-out: IC50
[1] = Induction of mitochondria membrane potential loss in human A-431 cells assessed as green fluorescence intensity at 7.5 nM incubated 48 hrs by JC-1 probe based flow cytometry analysis (reference value: 5.98%); assay type: functional
[2] = Induction of mitochondria membrane potential loss in human A-431 cells assessed as red fluorescence intensity at 15 nM incubated 48 hrs by JC-1 probe based flow cytometry analysis (reference value: 93.83%); assay type: functional
A-431 [3] = test: Induction of apoptosis in human A-431 cells assessed as early apoptotic cells at 15 nM after 48 hrs by Annexin-V-APC/PI-staining based flow cytometric analysis (reference value: 0.82%); assay type: functional
A-431 [4] = test: Induction of apoptosis in human A-431 cells assessed as viable cells at 30 nM after 48 hrs by Annexin-V-APC/PI-staining based flow cytometric analysis (reference value: 93.37%); assay type: functional; details: read-out: Activity
[5] = Aqueous solubility of the compound in aqueous HCl at pH 2 by HPLC-UV analysis; assay type: physicochemical
A-431 [6] = test: Induction of apoptosis in human A-431 cells assessed as late apoptotic cells at 30 nM after 48 hrs by Annexin-V-APC/PI-staining based flow cytometric analysis (reference value: 2.02%); assay type: functional
H22 [7] = test: Antitumor activity against […] xenografted in ICR mouse assessed as reduction of tumor weight at 20 mg/kg/day, iv for 21 days; assay type: functional; details: 504 h, time 21 day
A-431 [8] = test: Anti-microtubule activity in human A-431 cells assessed as disruption of microtubule network at 7.5 to 30 nM incubated for 24 hrs by DAPI staining based confocal microscopic analysis; assay type: functional, cell-based; details: dose 7.5-30 nM
A-431 [9] = test: Cell cycle arrest in human A-431 cells assessed as downregulation of CyclinB1 expression by Western blot analysis; assay type: functional, cell-based; details: dose 7.5-30 nM
A-431 [10] = test: Induction of apoptosis in human A-431 cells assessed as necrotic cells at 15 nM after 48 hrs by Annexin-V-APC/PI-staining based flow cytometric analysis (reference value: 3.79%); assay type: functional
A-431 [11] = test: Induction of apoptosis in human A-431 cells assessed as early apoptotic cells at 7.5 nM after 48 hrs by Annexin-V-APC/PI-staining based flow cytometric analysis (reference value: 0.82%); assay type: functional
A-431 [12] = test: Induction of cell cycle arrest in human A-431 cells assessed as accumulation at S phase at 7.5 nM after 48 hrs by propidium iodide staining based flow cytometry (reference value: 46.57%); assay type: functional
[13] = Toxicity in ICR mouse xenografted with […] cells assessed as effect on body weight at 20 mg/kg/day, iv for 21 days; assay type: organism-based; details: in vivo, 504 h, time 21 day
A-431 [14] = test: Induction of apoptosis in human A-431 cells assessed as viable cells at 7.5 nM after 48 hrs by Annexin-V-APC/PI-staining based flow cytometric analysis (reference value: 93.37%); assay type: functional; details: read-out: Activity
A-431 [15] = test: Anti-microtubule activity in human A-431 cells assessed as cell membrane rounding at 7.5 to 30 nM incubated for 24 hrs by DAPI staining based confocal microscopic analysis; assay type: functional; details: dose 7.5-30 nM
Sus scrofa [16] = species on record: Sus scrofa; test: Inhibition of [3H]colchicine binding to biotinylated pig brain tubulin at 1 uM incubated for 2 hrs in presence of GTP by competitive scintillation proximity assay; assay type: tissue-based
Sus scrofa [17] = species on record: Sus scrofa; test: Inhibition of [3H]colchicine binding to biotinylated pig brain tubulin at 5 uM incubated for 2 hrs in presence of GTP by competitive scintillation proximity assay; assay type: tissue-based
[18] = Resistant index, ratio of IC50 for taxol-resistant human HCT-8 cells to IC50 for human HCT-8 cells; assay type: functional
[19] = Metabolic stability in rat plasma assessed as parent compound remaining at 100 nM measured after 60 mins by HPLC analysis; assay type: ADME, cell-free; details: 1 h, 0.1 µM
[20] = Aqueous solubility of the compound in phosphate buffer at pH 7.4 by HPLC-UV analysis; assay type: physicochemical
A-431 [21] = test: Induction of cell cycle arrest in human A-431 cells assessed as accumulation at G1 phase at 15 nM after 48 hrs by propidium iodide staining based flow cytometry (reference value: 41.16%); assay type: functional
Bel-7402 = test: Antiproliferative activity against human Bel-7402 cells assessed as reduction in cell viability incubated for 72 hrs by MTT assay; assay type: functional, cell-based; details: Homo sapiens, Bel-7402, 72 h; read-out: IC50
A-431 [22] = test: Induction of cell cycle arrest in human A-431 cells assessed as accumulation at G2 phase at 15 nM after 48 hrs by propidium iodide staining based flow cytometry (reference value: 7.27%); assay type: functional
A-431 [23] = test: Induction of apoptosis in human A-431 cells assessed as nuclear fragmentation at 7.5 to 30 nM incubated for 48 hrs by Hoechst33342 staining based fluorescent microscopy; assay type: functional, cell-based; details: dose 7.5-30 nM
MDA-MB-231 = test: Antiproliferative activity against human MDA-MB-231 cells assessed as reduction in cell viability incubated for 72 hrs by MTT assay; assay type: functional, cell-based; details: MDA-MB-231, 72 h
HepG2 = test: cells; details: Homo sapiens, HepG2, 72 h
A-431 [24] = test: Induction of cell cycle arrest in human A-431 cells assessed as accumulation at G2 phase at 30 nM after 48 hrs by propidium iodide staining based flow cytometry (reference value: 7.27%); assay type: functional
[25] = Induction of mitochondria membrane potential loss in human A-431 cells assessed as red fluorescence intensity at 7.5 nM incubated 48 hrs by JC-1 probe based flow cytometry analysis (reference value: 93.83%); assay type: functional
H22 [26] = test: Antitumor activity against […] xenografted in ICR mouse assessed as reduction of tumor weight at 10 mg/kg/day, iv for 21 days; assay type: functional; details: 504 h, time 21 day
A-431 [27] = test: Induction of cell cycle arrest in human A-431 cells assessed as accumulation at G1 phase at 30 nM after 48 hrs by propidium iodide staining based flow cytometry (reference value: 41.16%); assay type: functional
H22 [28] = test: Antivascular activity against […] xenografted in ICR mouse assessed as reduction in tumor microvessel density at 20 mg/kg/day, iv administered for 21 days by immunohistochemical staining based analysis; assay type: functional, organism-based; details: time 21.0 day
A-431 [29] = test: Induction of apoptosis in human A-431 cells assessed as activation of p53 at 7.5 to 30 nM by western blot analysis; assay type: functional, cell-based; details: dose 7.5-30 nM
[30] = Inhibition of pig brain tubulin polymerisation incubated for 30 mins and measured every 2 mins for 60 mins by spectrophotometric method; assay type: tissue-based, Sus scrofa

`COc1ccc(CNC(=O)c2cc(F)ccc2N2CCOCC2)cc1O` gave an IC50 (K562/VCR) of 205 nM, an Activity [1] of 26.73% and an Activity [2] of 54.43%. For the same molecule, the Activity (A-431 [3]) was 18.35%, the viability at 0.03 µM (A-431 [4]) was 26.5% and the solubility [5] was 323 µg/mL (≈ 897 µM). The Activity (A-431 [6]) was 32.12%, the inhibition in vivo at 20 mg/kg/day (H22 [7]) was 66% and the Activity (A-431 [8]) was “Active”. The Activity (A-431 [9]) was “Dose-Dependent Effect”, the Activity (A-431 [10]) was 9.79% and the Activity (A-431 [11]) was 11.52%. The Activity (A-431 [12]) was 40.02%, the Activity [13] was “Non-Toxic” and the viability at 0.0075 µM (A-431 [14]) was 71%. For the same molecule, the Activity (A-431 [15]) was “Active”, the inhibition (Sus scrofa [16]) was 56.9% and the inhibition (Sus scrofa [17]) was 82.9%. The “Ratio IC50” value [18] was 5.3, the Stabilty [19] was “Stable” and the solubility [20] was 76.6 µg/mL (≈ 213 µM). For the same molecule, the Activity (A-431 [21]) was 61.16%, the IC50 (Bel-7402) was 27 nM and the Activity (A-431 [22]) was 16.25%. For the same molecule, the Activity (A-431 [23]) was “Active”, the IC50 (MDA-MB-231) was 27 nM and the IC50 (HepG2) was 25 nM. It also gave an Activity (A-431 [24]) of 24.95%, an Activity [25] of 73.18% and an inhibition in vivo at 10 mg/kg/day (H22 [26]) of 50.3%. The Activity (A-431 [27]) was 56.41%, the Activity (H22 [28]) was “Active” and the Activity (A-431 [29]) was “Active”. For the same molecule, the IC50 [30] was 3030 nM.
